From the supplement of paper PMC11451515

Key:
Details in all cases: 48 h
SEM cells [1] = experiment: cell viability relative to DMSO control; higher = less cytotoxic
Method in brief: (§1)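 Library compounds in DMSO were pin-dosed in an 11-point threefold series (47 μM to 0.79 nM) onto leukemia cells in 1536-well plates (5 μl). Plates held 500 cells/well of NOMO1 or SEM or 1000 cells/well of P12-Ichikawa, each adapted for at least four passages in each medium. Luminescence was read with CellTiter-Glo One after 48 h at 37°C. Viability means the per-plate percentage relative to DMSO wells, using cell-free wells as background.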

NOMO1 [2] = experiment: as above
Method in brief: as §1

P12-Ichikawa [3] = experiment: as above
Method in brief: as §1

SEM cells [4] = experiment: AUC of viability dose-response curve (% viability x log10 dose units); higher = less sensitive
Method in brief: (§2)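 Area under the curve was integrated by trapezoidal rule from a log-logistic fit of normalised viability, with curves exceeding full viability scaled and quality-control failures removed. The fit had four parameters over log10 doses. Viability came from CellTiter-Glo One luminescence, normalised per plate to DMSO and cell-free wells, after leukemia cells adapted to each medium (500 or 1000 cells/well, 1536-well plates) were exposed to library compounds in DMSO for 48 h at 37°C. The 11 threefold doses ran from 47 μM to 0.79 nM.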

NOMO1 [5] = experiment: as above
Method in brief: as §2

P12-Ichikawa [6] = experiment: as above
Method in brief: as §2

CN1c2ccccc2C(=O)N2CCc3c([nH]c4ccccc34)C21 (stereo unspecified)
cell viability [%]
Details | NOMO1 [2] | P12-Ichikawa [3] | SEM cells [1]
HPLM + 10% dialyzed FBS, 0.000781 µM | 122 | 122 | 136
HPLM + 10% dialyzed FBS, 0.00234 µM | 115 | 118 | 120
HPLM + 10% dialyzed FBS, 0.00702 µM | 118 | 112 | 114
HPLM + 10% dialyzed FBS, 0.0211 µM | 138 | 123 | 127
HPLM + 10% dialyzed FBS, 0.0632 µM | 130 | 119 | 125
HPLM + 10% dialyzed FBS, 0.19 µM | 135 | 120 | 120
HPLM + 10% dialyzed FBS, 0.569 µM | 151 | 116 | 122
HPLM + 10% dialyzed FBS, 1.71 µM | 118 | 115 | 131
HPLM + 10% dialyzed FBS, 5.12 µM | 107 | 111 | 125
HPLM + 10% dialyzed FBS, 15.4 µM | 105 | 116 | 117
HPLM + 10% dialyzed FBS, 46.1 µM | 102 | 117 | 101
RPMI 5 mM glucose + 10% FBS, 0.000781 µM | 116 | 125 | –
RPMI 5 mM glucose + 10% FBS, 0.00234 µM | 108 | 139 | –
RPMI 5 mM glucose + 10% FBS, 0.00702 µM | 122 | 113 | –
RPMI 5 mM glucose + 10% FBS, 0.0211 µM | 116 | 119 | –
RPMI 5 mM glucose + 10% FBS, 0.0632 µM | 112 | 121 | –
RPMI 5 mM glucose + 10% FBS, 0.19 µM | 111 | 118 | –
RPMI 5 mM glucose + 10% FBS, 0.569 µM | 123 | 122 | –
RPMI 5 mM glucose + 10% FBS, 1.71 µM | 115 | 119 | –
RPMI 5 mM glucose + 10% FBS, 5.12 µM | 102 | 117 | –
RPMI 5 mM glucose + 10% FBS, 15.4 µM | 107 | 118 | –
RPMI 5 mM glucose + 10% FBS, 46.1 µM | 106 | 111 | –
RPMI 5 mM glucose + 10% dialyzed FBS, 0.000781 µM | – | 127 | 111
RPMI 5 mM glucose + 10% dialyzed FBS, 0.00234 µM | – | 122 | 105
RPMI 5 mM glucose + 10% dialyzed FBS, 0.00702 µM | – | 114 | 120
RPMI 5 mM glucose + 10% dialyzed FBS, 0.0211 µM | – | 125 | 114
RPMI 5 mM glucose + 10% dialyzed FBS, 0.0632 µM | – | 129 | 104
RPMI 5 mM glucose + 10% dialyzed FBS, 0.19 µM | – | 116 | 112
RPMI 5 mM glucose + 10% dialyzed FBS, 0.569 µM | – | 111 | 125
RPMI 5 mM glucose + 10% dialyzed FBS, 1.71 µM | – | 114 | 109
RPMI 5 mM glucose + 10% dialyzed FBS, 5.12 µM | – | 118 | 102
RPMI 5 mM glucose + 10% dialyzed FBS, 15.4 µM | – | 115 | 89.1
RPMI 5 mM glucose + 10% dialyzed FBS, 46.1 µM | – | 107 | 94.7

AUC of viability dose-response curve
Details | NOMO1 [5] | P12-Ichikawa [6] | SEM cells [4]
HPLM + 10% dialyzed FBS | 445 | 470 | 453
RPMI 5 mM glucose + 10% FBS | 466 | 454 | 438
RPMI 5 mM glucose + 10% dialyzed FBS | 434 | 451 | 459

CC(=O)NCCC(=O)N[C@@H](CCC(N)=O)C(=O)N[C@@H](CO)C(=O)N[C@@H](CCC(N)=O)C(=O)N[C@@H](CCC(N)=O)C(=O)N[C@H](C(=O)N[C@@H](Cc1ccccc1)C(=O)N[C@]1(C)CCCCCC/C=C\CCC[C@@](C)(C(=O)N[C@@H](CCC(N)=O)C(=O)N[C@@H](CC(N)=O)C(N)=O)NC(=O)[C@H](CC(C)C)NC(=O)[C@H](CC(C)C)NC(=O)[C@@H](CCCNC(=N)N)NC(=O)[C@H](Cc2c[nH]c3ccccc23)NC(=O)[C@H](CC(C)C)NC(=O)[C@H](CC(N)=O)NC1=O)[C@H](C)O
AUC of viability dose-response curve
Details | NOMO1 [5] | P12-Ichikawa [6] | SEM cells [4]
HPLM + 10% dialyzed FBS | 456 | 461 | 376
RPMI 5 mM glucose + 10% FBS | 451 | 460 | 321
RPMI 5 mM glucose + 10% dialyzed FBS | 426 | 437 | 346

COc1cc(OC)c(OC)cc1C=O
cell viability [%], SEM cells [1]
Details | HPLM + 10% dialyzed FBS | RPMI 5 mM glucose + 10% dialyzed FBS
0.000781 µM | 98 | 113
0.00234 µM | 111 | 96.5
0.00702 µM | 111 | 130
0.0211 µM | 109 | 144
0.0632 µM | 108 | 148
0.19 µM | 113 | 146
0.569 µM | 88.7 | 94
1.71 µM | 58.6 | 54
5.12 µM | 122 | 126
15.4 µM | 133 | 162
46.1 µM | 139 | 130

AUC of viability dose-response curve
Details | NOMO1 [5] | P12-Ichikawa [6] | SEM cells [4]
HPLM + 10% dialyzed FBS | 467 | 455 | 439
RPMI 5 mM glucose + 10% FBS | 474 | 440 | 450
RPMI 5 mM glucose + 10% dialyzed FBS | 469 | 429 | 460

C[C@H]1CC2C3CCC/4=C/C(=O)/C=C\[C@]4(C)[C@@]3(F)[C@@H](O)C[C@]2(C)[C@@]1(O)C(=O)CO (stereo partly specified)
AUC of viability dose-response curve
Details | NOMO1 [5] | P12-Ichikawa [6] | SEM cells [4]
HPLM + 10% dialyzed FBS | 420 | 374 | 372
RPMI 5 mM glucose + 10% FBS | 450 | 342 | 356
RPMI 5 mM glucose + 10% dialyzed FBS | 466 | 330 | 348

COC1=C2C[C@@H](C)C[C@H](OC)[C@H](O)[C@@H](C)/C=C(\C)[C@H](OC(N)=O)[C@@H](OC)/C=C/C=C(\C)C(=O)NC(=CC1=O)C2=O
cell viability [%]
Details | NOMO1 [2] | P12-Ichikawa [3] | SEM cells [1]
HPLM + 10% dialyzed FBS, 0.000781 µM | – | 114 | 122
HPLM + 10% dialyzed FBS, 0.00234 µM | – | 106 | 115
HPLM + 10% dialyzed FBS, 0.00702 µM | – | 116 | 125
HPLM + 10% dialyzed FBS, 0.0211 µM | – | 109 | 127
HPLM + 10% dialyzed FBS, 0.0632 µM | – | 107 | 117
HPLM + 10% dialyzed FBS, 0.19 µM | – | 113 | 123
HPLM + 10% dialyzed FBS, 0.569 µM | – | 98.6 | 101
HPLM + 10% dialyzed FBS, 1.71 µM | – | 104 | 115
HPLM + 10% dialyzed FBS, 5.12 µM | – | 77.4 | 100
HPLM + 10% dialyzed FBS, 15.4 µM | – | 48.4 | 6.39
HPLM + 10% dialyzed FBS, 46.1 µM | – | 38.6 | 5.09
RPMI 5 mM glucose + 10% FBS, 0.000781 µM | 108 | 106 | –
RPMI 5 mM glucose + 10% FBS, 0.00234 µM | 119 | 109 | –
RPMI 5 mM glucose + 10% FBS, 0.00702 µM | 104 | 108 | –
RPMI 5 mM glucose + 10% FBS, 0.0211 µM | 119 | 112 | –
RPMI 5 mM glucose + 10% FBS, 0.0632 µM | 109 | 108 | –
RPMI 5 mM glucose + 10% FBS, 0.19 µM | 111 | 108 | –
RPMI 5 mM glucose + 10% FBS, 0.569 µM | 109 | 102 | –
RPMI 5 mM glucose + 10% FBS, 1.71 µM | 110 | 90.8 | –
RPMI 5 mM glucose + 10% FBS, 5.12 µM | 101 | 80.5 | –
RPMI 5 mM glucose + 10% FBS, 15.4 µM | 80.4 | 51.5 | –
RPMI 5 mM glucose + 10% FBS, 46.1 µM | 4.86 | 27.2 | –
RPMI 5 mM glucose + 10% dialyzed FBS, 0.000781 µM | 112 | 116 | 110
RPMI 5 mM glucose + 10% dialyzed FBS, 0.00234 µM | 111 | 117 | 105
RPMI 5 mM glucose + 10% dialyzed FBS, 0.00702 µM | 123 | 114 | 102
RPMI 5 mM glucose + 10% dialyzed FBS, 0.0211 µM | 113 | 111 | 108
RPMI 5 mM glucose + 10% dialyzed FBS, 0.0632 µM | 115 | 108 | 97.2
RPMI 5 mM glucose + 10% dialyzed FBS, 0.19 µM | 114 | 111 | 95.8
RPMI 5 mM glucose + 10% dialyzed FBS, 0.569 µM | 113 | 108 | 99.7
RPMI 5 mM glucose + 10% dialyzed FBS, 1.71 µM | 121 | 94.4 | 114
RPMI 5 mM glucose + 10% dialyzed FBS, 5.12 µM | 123 | 72.2 | 72.2
RPMI 5 mM glucose + 10% dialyzed FBS, 15.4 µM | 81.3 | 34.2 | 5.54
RPMI 5 mM glucose + 10% dialyzed FBS, 46.1 µM | 5.45 | 28 | 4.75

AUC of viability dose-response curve
Details | NOMO1 [5] | P12-Ichikawa [6] | SEM cells [4]
HPLM + 10% dialyzed FBS | 430 | 416 | 402
RPMI 5 mM glucose + 10% FBS | 438 | 410 | 396
RPMI 5 mM glucose + 10% dialyzed FBS | 440 | 399 | 395
